For ten compounds, IC50 results are on record in patent US20250215010A1, “DIAZABICYCLOOCTANE DERIVATIVES USEFUL AS MATRIX METALLOPROTEINASE INHIBITORS” (VASA THERAPEUTICS SPOLKA Z OGRANICZONA ODPOWIEDZIALNOSCIA, priority 2022, published 2025).

Read-outs that look alike come from different tables or passages of the source.

Common to all, as to type: biochemical
For one assay, the target named is T1, MMP2 (Homo sapiens, UniProt P08253).
T1 sequence (P08253 110-660): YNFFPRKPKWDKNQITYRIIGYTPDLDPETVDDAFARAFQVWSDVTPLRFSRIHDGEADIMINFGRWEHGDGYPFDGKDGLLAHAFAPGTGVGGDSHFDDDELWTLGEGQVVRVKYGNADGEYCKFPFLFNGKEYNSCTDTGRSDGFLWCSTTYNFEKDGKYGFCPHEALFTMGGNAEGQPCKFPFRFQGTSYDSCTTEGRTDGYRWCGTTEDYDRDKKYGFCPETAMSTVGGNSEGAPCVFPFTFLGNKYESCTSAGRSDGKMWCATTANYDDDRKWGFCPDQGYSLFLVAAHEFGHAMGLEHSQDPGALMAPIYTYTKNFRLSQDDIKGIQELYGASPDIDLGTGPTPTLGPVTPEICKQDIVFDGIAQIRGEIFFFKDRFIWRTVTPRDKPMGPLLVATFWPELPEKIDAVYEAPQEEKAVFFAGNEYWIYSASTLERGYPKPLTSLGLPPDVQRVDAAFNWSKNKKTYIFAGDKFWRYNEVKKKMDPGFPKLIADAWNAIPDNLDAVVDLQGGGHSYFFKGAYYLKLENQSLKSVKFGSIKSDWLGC
Put plainly: MMP-2 colorimetric inhibition assay (Enzo kit BML-AK408). As to conditions: thiopeptide substrate, absorbance 415 nm; read-out: MMP 2 IC50 class. Put shortly: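 Cleavage of the thiopeptide Ac-PLG-[2-mercapto-4-methylpentanoyl]-LG-OC2H5 releases a sulfhydryl that reacts with DTNB, read at 415 nm per the kit protocol. IC50 values (nM) come from inhibition curves of normalized data.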

A further assay deals with MMP9 (Homo sapiens, UniProt P14780). Put plainly: MMP-9 colorimetric inhibition assay (Enzo kit BML-AK410). The following applies: thiopeptide substrate, absorbance 415 nm; read-out: MMP 9 IC50 class. Put shortly: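 Colorimetric thioester-substrate assay: hydrolysis of Ac-PLG-[2-mercapto-4-methylpentanoyl]-LG-OC2H5 frees a thiol that reacts with DTNB, read at 415 nm. Run per kit protocol. IC50 (nM) taken from inhibition curves of normalized values.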

The target in another assay is T2, MMP1 (Homo sapiens, UniProt P03956).
T2 sequence (P03956 100-269 limits assumed): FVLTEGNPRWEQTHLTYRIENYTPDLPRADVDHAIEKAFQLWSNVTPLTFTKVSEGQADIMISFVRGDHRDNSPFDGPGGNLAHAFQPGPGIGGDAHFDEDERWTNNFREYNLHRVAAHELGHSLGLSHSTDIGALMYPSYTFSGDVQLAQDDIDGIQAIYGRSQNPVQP
Put plainly: MMP-1 colorimetric inhibition assay (Enzo kit BML-AK404). As to conditions: thiopeptide substrate, absorbance 415 nm; read-out: MMP 1 IC50 class. Put shortly: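 Colorimetric kit run per manufacturer protocol. MMP-1 cleaves a thiopeptide substrate (Ac-PLG-[2-mercapto-4-methylpentanoyl]-LG-OC2H5); released thiol reacts with DTNB, monitored at 415 nm. IC50 (nM) from inhibition curves of normalized values.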

The next assay addresses T3, ADAM10 (Homo sapiens, UniProt O14672).
T3 construct: purchased AnaSpec, Inc. AS-72226
T3 sequence (O14672 214-748): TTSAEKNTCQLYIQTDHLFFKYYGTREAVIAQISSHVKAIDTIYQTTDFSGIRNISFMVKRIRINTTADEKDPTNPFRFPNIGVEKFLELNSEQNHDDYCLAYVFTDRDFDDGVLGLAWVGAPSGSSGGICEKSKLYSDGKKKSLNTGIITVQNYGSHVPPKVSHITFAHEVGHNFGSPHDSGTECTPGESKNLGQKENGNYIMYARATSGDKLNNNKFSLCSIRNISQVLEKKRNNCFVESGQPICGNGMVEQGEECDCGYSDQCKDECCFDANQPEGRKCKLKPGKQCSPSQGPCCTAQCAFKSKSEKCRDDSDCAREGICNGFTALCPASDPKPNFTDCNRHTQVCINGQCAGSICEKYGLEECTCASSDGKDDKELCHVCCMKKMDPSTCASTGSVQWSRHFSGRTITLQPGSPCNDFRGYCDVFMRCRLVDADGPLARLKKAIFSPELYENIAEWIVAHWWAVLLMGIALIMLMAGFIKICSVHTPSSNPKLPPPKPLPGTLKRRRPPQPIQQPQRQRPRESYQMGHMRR
Put plainly: SensoLyte 520 ADAM10 fluorometric activity assay (AnaSpec AS-72226). The following applies: FRET peptide substrate, ex/em 495/520 nm; read-out: ADAM 10 IC50 class. Here is the method:
The inhibitory activities of the compounds of the invention were assessed in 96-well microplate format using MMP1, MMP2, MMP9 and MMP13 colorimetric assay kits and TACE fluorometric assay kit from Enzo Life Sciences, Inc. The inhibitory effect of the compounds of the invention on ADAM10 activity were evaluated in 96-well microplate format using fluorometric assay from AnaSpec, Inc.
SensoLyte® 520 ADAM10 Activity Assay Kit (catalog #AS-72226) is a complete assay system designed to screen ADAM10 inhibitors using FRET-based peptide substrate containing the 5-FAM/QXL™ 520 fluorophore/quencher pair. The fluorescence of 5-FAM is quenched by QXL™ 520 and recovered upon cleavage of the peptide by active ADAM10.
The inhibitory activity of the compounds of the invention against ADAM10 was tested according to the manufacturer's assay protocol and the fluorescence was monitored at excitation/emission wavelengths=495 nm/520 nm using Tecan Infinite® 200 Pro F Nano^+ microplate reader.
The normalized values were analyzed using GraphPadPrism 9 for Windows (GraphPad Software, San Diego, CA, USA) software by plotting inhibition curves and determining the IC50 values (in nM).

Another assay has as its target ADAM17 (TACE) (Homo sapiens, UniProt P78536). Put plainly: TACE fluorometric inhibition assay (Enzo kit BML-AK310). The following applies: quenched fluorogenic peptide, ex/em 320/420 nm; read-out: TACE IC50 class. The procedure, abridged: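 Kit-based TACE assay run per manufacturer's protocol, using quenched fluorogenic peptide Mca-PLAQAV-Dpa-RSSSR-NH2 whose cleavage raises Mca fluorescence. Signal read at ex/em 320/420 nm; IC50 (nM) derived from inhibition curves of normalized values.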

A further assay concerns the target T4, MMP13 (Homo sapiens, UniProt P45452).
T4 construct: purchased Enzo Life Sciences, Inc. BML-AK412
Put plainly: MMP-13 colorimetric inhibition assay (Enzo kit BML-AK412). The procedure, abridged:
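Thiopeptide chromogenic substrate (Ac-PLG-[2-mercapto-4-methylpentanoyl]-LG-OC2H5); MMP-13 hydrolysis of the thioester yields a thiol that reacts with DTNB, read at 415 nm. IC50 values (nM) derived from inhibition curves of normalized data.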

The mark [1] stands for this setting: thiopeptide substrate, absorbance 415 nm, read-out: MMP 13 IC50 class.

MMP9, sequence (P14780 94-707): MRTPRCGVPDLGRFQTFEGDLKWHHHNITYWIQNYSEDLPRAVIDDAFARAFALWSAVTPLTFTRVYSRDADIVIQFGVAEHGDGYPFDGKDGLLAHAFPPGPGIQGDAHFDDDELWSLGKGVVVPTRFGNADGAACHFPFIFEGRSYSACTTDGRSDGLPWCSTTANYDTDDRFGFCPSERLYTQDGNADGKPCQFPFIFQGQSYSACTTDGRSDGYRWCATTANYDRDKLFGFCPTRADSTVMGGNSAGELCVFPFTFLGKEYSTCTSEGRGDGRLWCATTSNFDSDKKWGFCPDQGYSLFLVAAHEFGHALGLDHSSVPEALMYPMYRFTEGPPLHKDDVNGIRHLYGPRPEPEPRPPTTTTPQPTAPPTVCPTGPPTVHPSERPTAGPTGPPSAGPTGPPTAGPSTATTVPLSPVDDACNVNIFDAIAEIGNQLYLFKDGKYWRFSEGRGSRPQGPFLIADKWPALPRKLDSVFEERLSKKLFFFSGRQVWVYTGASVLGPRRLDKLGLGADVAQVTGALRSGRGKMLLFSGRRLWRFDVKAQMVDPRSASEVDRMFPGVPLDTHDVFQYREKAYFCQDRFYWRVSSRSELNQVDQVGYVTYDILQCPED
ADAM17 (TACE), sequence (P78536 215-477 limits assumed): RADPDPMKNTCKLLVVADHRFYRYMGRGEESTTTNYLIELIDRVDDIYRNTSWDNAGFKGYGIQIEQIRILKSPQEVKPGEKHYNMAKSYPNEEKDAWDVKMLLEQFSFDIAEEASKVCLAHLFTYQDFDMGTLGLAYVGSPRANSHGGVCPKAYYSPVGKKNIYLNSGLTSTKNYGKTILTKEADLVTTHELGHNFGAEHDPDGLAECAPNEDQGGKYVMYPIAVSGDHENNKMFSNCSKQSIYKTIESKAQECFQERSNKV

For the compound `COCCOC(=O)N1[C@@H]2CC[C@H]1[C@H](C(=O)NO)N(S(=O)(=O)c1ccc(Oc3ccc(F)c(F)c3)nc1)C2` [Example 22, 2-methoxyethyl (1S,2R,5R)-3-((6-(3,4-difluoro-phenoxy)pyridin-3-yl)sulfonyl)-2-(hydroxycarbamoyl)-3,8-diazabicyclo-[3.2.1]octane-8-carboxylate], the IC50 – broadly, the point on the concentration scale where inhibition reaches its midpoint – on MMP2 is less than 0.05 µM; at MMP9, less than 0.05 µM; at MMP1, 0.05 to 1 µM; at ADAM10, more than 10 µM; at ADAM17 (TACE) it was 0.05 to 1 µM; at MMP13 (setting [1]), less than 0.05 µM.

As for `COCCOC(=O)N1[C@@H]2CC[C@H]1[C@H](C(=O)NO)N(S(=O)(=O)c1ccc(Oc3ccc(OC(F)F)cc3)nc1)C2` [Example 24, 2-methoxyethyl (1S,2R,5R)-3-((6-(4-(difluoromethoxy)phenoxy)pyridin-3-yl)sulfonyl)-2-(hydroxycarbamoyl)-3,8-diazabicyclo[3.2.1]octane-8-carboxylate], the IC50 at MMP2 is less than 0.05 µM; at MMP9, less than 0.05 µM; at MMP1, 1 to 10 µM; at ADAM10, 1 to 10 µM; on ADAM17 (TACE), 0.05 to 1 µM; at MMP13 (setting [1]), less than 0.05 µM.

For `COCCOC(=O)N1[C@@H]2CC[C@H]1[C@H](C(=O)NO)N(S(=O)(=O)c1ccc(Oc3ccc(OCC(F)(F)F)cc3)nc1)C2` [Example 25, 2-methoxyethyl (1S,2R,5R)-2-(hydroxycarbamoyl)-3-((6-(4-(2,2,2-trifluoroethoxy)-phenoxy)pyridin-3-yl)sulfonyl)-3,8-diazabicyclo[3.2.1]-octane-8-carboxylate], the IC50 at MMP2 is less than 0.05 µM; on MMP9 it was less than 0.05 µM; at MMP1 it was 1 to 10 µM; on ADAM10, more than 10 µM; at ADAM17 (TACE) it was more than 10 µM; on MMP13 (setting [1]), less than 0.05 µM.

On to `COCCOC(=O)N1[C@@H]2CC[C@H]1[C@H](C(=O)NO)N(S(=O)(=O)c1ccc(Oc3ccc(OC)nc3)nc1)C2` [Example 28, 2-methoxyethyl (1S,2R,5R)-2-(hydroxycarbamoyl)-3-((6-((6-methoxy-pyridin-3-yl)oxy)-pyridin-3-yl)-sulfonyl)-3,8-diaza-bicyclo[3.2.1]octane-8-carboxylate], for which the IC50 is less than 0.05 µM on MMP2; less than 0.05 µM on MMP9; 0.05 to 1 µM on MMP1; more than 10 µM on ADAM10; 1 to 10 µM on ADAM17 (TACE); less than 0.05 µM on MMP13 (setting [1]).

On to `CCOc1ccc(Oc2ccc(S(=O)(=O)N3C[C@H]4CC[C@@H]([C@@H]3C(=O)NO)N4C(=O)OCCOC)cn2)cc1` [Example 29, 2-methoxyethyl (1S,2R,5R)-3-((6-(4-ethoxyphenoxy)-pyridin-3-yl)-sulfonyl)-2-(hydroxycarbamoyl)-3,8-diazabicyclo-[3.2.1]octane-8-carboxylate], for which the 50% inhibitory concentration (IC50) on MMP2 was less than 0.05 µM; on MMP9, less than 0.05 µM; at MMP1 it was 0.05 to 1 µM; on ADAM10 it was more than 10 µM; on ADAM17 (TACE), 1 to 10 µM; on MMP13, less than 0.05 µM.

On to `COCCOC(=O)N1[C@@H]2CC[C@H]1[C@H](C(=O)NO)N(S(=O)(=O)c1ccc(Oc3ccc(OC(C)C)cc3)nc1)C2` [Example 30, 2-methoxyethyl (1S,2R,5R)-2-(hydroxycarbamoyl)-3-((6-(4-isopropoxy-phenoxy)pyridin-3-yl)sulfonyl)-3,8-diazabicyclo[3.2.1]-octane-8-carboxylate], for which the half-inhibitory concentration (IC50) is less than 0.05 µM at MMP2; less than 0.05 µM on MMP9; 0.05 to 1 µM at MMP1; more than 10 µM on ADAM10; 1 to 10 µM at ADAM17 (TACE); less than 0.05 µM at MMP13 (setting [1]).

Regarding `COCCOC(=O)N1[C@@H]2CC[C@H]1[C@H](C(=O)NO)N(S(=O)(=O)c1ccc(Oc3ccc(OC(C)(C)C)cc3)nc1)C2` [Example 31, 2-methoxyethyl (1S,2R,5R)-3-((6-(4-(tert-butoxy)-phenoxy)pyridin-3-yl)sulfonyl)-2-(hydroxycarbamoyl)-3,8-diazabicyclo-[3.2.1]octane-8-carboxylate], the IC50 was less than 0.05 µM at MMP2; less than 0.05 µM on MMP9; more than 10 µM at MMP1; more than 10 µM at ADAM10; more than 10 µM at ADAM17 (TACE); less than 0.05 µM at MMP13 (setting [1]).

For the compound `COCCOC(=O)N1[C@@H]2CC[C@H]1[C@H](C(=O)NO)N(S(=O)(=O)c1ccc(Oc3ccc(C)cc3)nc1)C2` [Example 32, 2-methoxyethyl (1S,2R,5R)-2-(hydroxycarbamoyl)-3-((6-(p-tolyloxy)-pyridin-3-yl)-sulfonyl)-3,8-diazabicyclo[3.2.1]-octane-8-carboxylate], the IC50 at MMP2 was less than 0.05 µM; on MMP9 it was less than 0.05 µM; at MMP1, 0.05 to 1 µM; on ADAM10 it was more than 10 µM; on ADAM17 (TACE), 1 to 10 µM; at MMP13 (setting [1]), less than 0.05 µM.

Take `CCc1ccc(Oc2ccc(S(=O)(=O)N3C[C@H]4CC[C@@H]([C@@H]3C(=O)NO)N4C(=O)OCCOC)cn2)cc1` [Example 33, 2-methoxyethyl (1S,2R,5R)-3-((6-(4-ethylphenoxy)pyridin-3-yl)sulfonyl)-2-(hydroxycarbamoyl)-3,8-diazabicyclo-[3.2.1]octane-8-carboxylate]: the IC50 at MMP2 is less than 0.05 µM; at MMP9, less than 0.05 µM; at MMP1, 1 to 10 µM; on ADAM10, more than 10 µM; at ADAM17 (TACE), 1 to 10 µM; at MMP13 (setting [1]), less than 0.05 µM.

On to `COCCOC(=O)N1[C@@H]2CC[C@H]1[C@H](C(=O)NO)N(S(=O)(=O)c1ccc(Oc3ccc(OC)c(F)c3)nc1)C2` [Example 34, 2-methoxyethyl (1S,2R,5R)-3-((6-(3-fluoro-4-methoxy-phenoxy)pyridin-3-yl)sulfonyl)-2-(hydroxycarbamoyl)-3,8-diaza-bicyclo[3.2.1]octane-8-carboxylate], for which the IC50 on MMP2 is less than 0.05 µM; at MMP9 it was less than 0.05 µM; on MMP1, 1 to 10 µM; on ADAM10, 1 to 10 µM; on ADAM17 (TACE), 1 to 10 µM; on MMP13 (setting [1]), less than 0.05 µM.
